{"source": "patent US20100150890A1", "about": "“MEDICINAL COMPOSITION, FOOD OR DRINK HAVING EFFECT OF ENHANCING SYMPATHETIC NERVOUS ACTIVITY” (SUNTORY HOLDINGS LIMITED, priority 2005, published 2010)", "assay_type_in_all_cases": "in vivo", "key": {"[1]": {"system": "kidney sympathetic nervous activity", "assay": "Rat kidney sympathetic nervous activity after transduodenal administration", "settings": "urethane-anesthetized male rat, transduodenal 10 μg/2 ml per animal, vs physiological saline control; FIG. 3", "protocol": "(§1) In these experiments, use was made of male Mister rats weighing about 300 g which had been fed in a thermostatic chamber (24° C.) with a light-dark cycle of 12-hour intervals (under illumination from 8:00 to 20:00) for 1 week or longer. A single rat was employed for each nervous experiment. The animals were fed with a feed (Oriental Yeast, MF) and water ad libitum. The autonomic nervous activity were examined by fasting the rats for 3 hours on the day of the experiment and then subjecting to an abdominal surgery under urethane-anesthesia at the intermediate point of the light period. Then, the effects of the transduodenal administration of 2,3-dihydro-3,5-dihydroxy-6-methyl-4H-pyran-4-one obtained in Example 1 on the kidney sympathetic nervous activity, stomach vagal (parasympathetic) nervous activity and blood pressure were measured in accordance with the method reported by T. Yamano et al., Neurosci. […] A cannula was inserted into the left femoral artery and then the blood pressure was measured by use of a transducer. […] Electrical nervous activity thus obtained were amplified with a condenser type differential amplifier, monitored with an oscilloscope and recorded on a magnetic tape. […] The data was analyzed based on the average discharge frequency per 5 seconds (pulse/5 sec) and expressed as a percentage by referring to the level before the administration as to 100%. […]"}, "[2]": {"assay": "Rat oxygen consumption (energy metabolism) after forced oral administration", "settings": "male SD rats fasted 16 hours, 40 μg/8 ml/kg body weight forced oral, within 60 minutes after administration, 5 rats per group; FIG. 8", "protocol": "Male SD rats aged 7 weeks were preliminarily fed with a solid feed (CE-2: NIPPON CREA) and water ad libitum for 1 week for the habituation to the light-dark cycle of 12-hour intervals. The thus habituated animals were fasted for 16 hours before the administration of the samples and then divided into two groups. Then, 40 μg/8 ml/kg body weight of DDMP and 8 ml/kg body weight of distilled water for injection were forcibly orally administered into the stomach to the respective groups. Within 60 minutes following the administration, oxygen consumption was measured with a metabolic meter for small animals (MK-5000RQ2: manufactured by MUROMACHI KIKAI Co., Ltd.). A combination of a DDMP-administered rat with a water-administered rat was referred to as a single experimental lot and the averages of five combinations (i.e., a DDMP-administered group having 5 rats and a water-administered group having 5 rats) were calculated."}, "[3]": {"assay": "Rat blood pressure after transduodenal administration (left femoral artery cannula, transducer)", "settings": "urethane-anesthetized male rat, transduodenal 10 μg/2 ml per animal, vs physiological saline control; FIG. 4", "protocol": "as §1"}, "[4]": {"system": "epididymal white adipose tissue sympathetic nervous activity", "assay": "Rat epididymal white adipose tissue sympathetic nervous activity after transduodenal administration", "settings": "transduodenal administration 10 μg, single rat, FIG. 7"}, "[5]": {"system": "stomach vagal (parasympathetic) nervous activity", "assay": "Rat stomach vagal (parasympathetic) nervous activity after transduodenal administration", "settings": "urethane-anesthetized male rat, transduodenal 10 μg/2 ml per animal, vs physiological saline control; FIG. 5", "protocol": "as §1"}, "[6]": {"system": "interscapular brown adipose tissue sympathetic nervous activity", "assay": "Rat interscapular brown adipose tissue sympathetic nervous activity after transduodenal administration", "settings": "transduodenal administration 10 μg, single rat, FIG. 6"}}, "data": [{"smiles": "CC1=C(O)C(=O)C(O)CO1", "note": "(stereo not drawn) [DDMP, 2,3-Dihydro-3,5-dihydroxy-6-methyl-4H-pyran-4-one]", "values": [{"measurement": "kidney sympathetic nervous activity (discharge frequency vs level before administration)", "setting": "[1]", "value": "enhanced"}, {"measurement": "oxygen consumption compared with the water-administered group", "setting": "[2]", "value": "increase in oxygen consumption"}, {"measurement": "blood pressure", "setting": "[3]", "value": "not elevated"}, {"measurement": "epididymal white adipose tissue sympathetic nervous activity", "setting": "[4]", "value": "enhanced"}, {"measurement": "stomach vagal (parasympathetic) nervous activity", "setting": "[5]", "value": "reduced"}, {"measurement": "interscapular brown adipose tissue sympathetic nervous activity", "setting": "[6]", "value": "enhanced"}]}]}
